In patent US7001770B1, “Calpain inhibitors and their applications” (priority 1998, dated 2006):
Square brackets hold non-standard residues; d marks the D form. Peptide text beside a SMILES is read from it. Nle = CCCC[C@H](N)C(=O)O

Columns and labels:
Assay type in all cases: cell-based
[1] = system: p53 protein levels in Hep3B cells (p53 null); assay: Western blot of p53 protein levels; details: rAd-p53 in the presence of 10 μM calpain inhibitor 1 versus rAd53 alone; 17 hours
Description: To determine if increases in exogeneous p53 levels occurred in response to CI-1, the p53 null cell line Hep3B was infected with 1×10^9 particle/ml and assayed for p53 protein levels by western blots 17 hours post-infection. No p53 protein was detected in untreated Hep3B. p53 protein was detected in cells infected with rAd53 alone, and increased greater then 10 fold when infected with rAd-p53 in the presence of 10 μM calpain inhibitor 1. […] The enhancement of p53 stability by CI-1 may not, therefore, be the sole mechanism by which enhanced cell death has been achieved. […] Thus, a new mechanism of action is involved other than p53 stability in the increased induction of apoptosis by the combination of CI-1 and p53.
At 17 hours post treatment, cells were lysed in protein lysis buffer (50 mM tris, 250 mM NaCl, 50 mM NaF, 5 mM EDTA and 0.1% NP-40 with 1 mM PMSF). Cell lysates were subjected to electrophoresis. 10 μg of protein was added per lane on a 12% polyacrylamide gel and transfered onto nitrocellulose membranes. The membranes were subjected to western blot analysis using antibodies specific for p53 or p21 (Calbiochem, p53 antibody Ab-6, and p21 antibody Ab-7). […] Blots were developed using enhanced chemiluminescence detection system (Amersham) and quantitated using NIH imaging analysis.

[2] = system: HLF cells; assay: G0/G1 cell cycle arrest by BrdU labeling, flow cytometry; details: 5 μM CI-1 for 17 hours, 2 hour pulse; DMF control 42%
Description: (§1) In order to determine any increases in p53 function in response to calpain inhibitor 1, the quantity of cells undergoing G0/G1 cell cycle arrest in response to CI-1 administration, was assayed by bromodeoxyuridine labeling of cells. Each of the cell lines described in Example 2 above were exposed to a concentration of 0 or 5 μM CI-1 (in DMF) as described in Example 3 above. Cell lines treated with DMF alone or 5 μM final concentration of calpain inhibitor 1 for 17 hours were pulse labeled with a final concentration of 10 μM bromodeoxyuridine (Boehringer Mannheim) for two hours. Cells were harvested for bivariate BrdU/DNA flow cytometric analysis by fixation in 70% ethanol, followed digestion with 0.08% pepsin for 30 minutes at 37 degrees. Cells were centrifuged at 1500 RPM, and 2N HCL was added. Cells were incubated at 37 degrees for 20 minutes, followed by addition of 1M sodium borate. Cells were washed in IFA/tween 20 (0.01 M HEPES, 0.005% sodium azide, 0.5% tween 20, 5% FBS, […]), and anti-BrdU antibody, diluted 1:10 in IFA without tween 20, was added for 30 minutes. Cells were washed in IFA/tween 20, and incubated in IFA/tween 20/RNase for 15 minutes at 37 degrees.
(§2) Cells that had incorporated BrdU were stained using a FITC conjugated monoclonal antibody to BrdU (commercially available from Becton-Dickinson) and detected by FACS analysis on a FACScan FACS machine (commercially available from Becton Dickinson).

[3] = system: RKO cells; assay: as above; details: 5 μM CI-1 for 17 hours, 2 hour pulse; DMF control 47%
Description: as §1, §2

[4] = system: HLF cells; assay: Infectivity: copies of rAd-p53 DNA by PCR
Description: The effects of the use of calpain inhibitors, particularly CI-1, were investigated in their ability to increase the infectivity of the HLF tumor cell line to rAd-p53. HLF cell lines were prepared in substantial accordance with the teaching of example 6 herein. The cells were exposed to two concentrations of rAd-p53 in the presence and absence of 10 μM CI-1. The total number of copies of rAd-p53 DNA were determined by PCR as described in Example 6. The results of these experiments are presented in Table 4 below and in graphical form in FIG. 7 of the attached drawings.
A similar experiment was conducted to determine the effect of pre-treatment of the cells with the calpain inhibitor. The cell lines were prepared as indicated above. In this experiment, one group of cells was pretreated with a 10 μM concentration of CI-1 for a period of 6 hours prior to exposure to the Ad-p53. The control sample was not pretreated. The results of these experiments are presented in Table 5 below and in graphical form in FIG. 7 of the attached drawings.
The following materials were obtained from Perkin Elmer Corporation under Part No. N808-0028: Gene Amp 10× Taqman Buffer A, 25 mM MgCl2, 5 μM Oligonucleotide Primer “A”, 5 μM Oligonucleotide Primer “B”, 5 units/mL AmpliTaq® Gold DNA Polymerase, 10 μM Taqman Probe. Deoxynucleotide Triphosphates, dATP, dCTP, and dGTP are 10 mM. dUTP is 20 mM. […]

SMILES: CCCC[C@@H](C=O)NC(=O)[C@H](CC(C)C)NC(=O)[C@H](CC(C)C)NC(C)=O [CI-1, N-acetyl-leu-leu-norleucinal] (Ac-Leu-Leu-[Nle]-aldehyde)
- increase in p53 protein [1]: > 10 fold
- cells incorporating BrdU label [2]: 35%
- cells incorporating BrdU label [3]: 16%
- increase in intracellular viral DNA ([4]; 10 μM CI-1, no pre-treatment, viral concentration 1×10^7 and 1×10^8 particles): 50 fold
- infectivity of the cells to the virus relative to untreated cells ([4]; 6 hour pretreatment with 10 μM CI-1, ACN53 3×10^7): approximately 130 times
